# Results from PubChem BioAssay AID2060493 (Molecular Pharmacology Branch, DTP, NCI, 2025).
# “And” between values parts separate entries of the source, which are not always exact repeats. Equal entries are not always repeated.
# Tested on: 616215-338-R-J1-PDC tumor spheroids, viability
# Assay: Anticancer human tumor 616215-338-R-J1-PDC patient-derived colon adenocarcinoma cell line growth inhibition [GQUAD]
# Details: spheroids with HUVEC and MSC; for viability, T/C: stronger effect = lower value; for IC50: curve of compound
# Description: DNA G-quadruplex Stabilizer Agents in Combinations in Complex Spheroids
# A high-throughput screen of multi-cell type tumor spheroids was designed to identify active combinations of DNA G-quadruplex stabilizer agents and targeted small molecules. Complex spheroids include a stromal component modeled by human endothelial cells (HUVEC) and fibroblasts modeled by human mesenchymal stem cells (MSCs). The concentration ranges selected for each drug and investigational agent were based upon clinically achievable concentrations if the clinical Cmax of the agent was known.
# Compounds. The drugs and investigational agents: pidnarulex (CX-5461; NSC782164), APTO-253 (NSC789042), BRACO-19 (NSC847499), peposertib (NSC802822), ceralasertib (NSC780249), elimusertib (NSC800525), camonsertib (NSC841442), AZD-1390 (NSC803789), olaparib (NSC753686), talazoparib (NSC767125), ART-558 (NSC835418), sotorasib (NSC818433), MRTX-1133 (NSC836407), SN-38 (NSC673596), topotecan (NSC609699), etoposide (NSC141540), doxorubicin (NSC123127), gemcitabine (NSC613327), 5-fluorouracil (NSC19893), paclitaxel (NSC125973), vemurafenib (NSC761431), panobinostat (NSC761190), R-306465 (JNJ-16241199; NSC773264), adavosertib (NSC754352), TP-3654 (NSC805149), carboplatin (NSC241240), KSQ-4279 (NSC840948), and staurosporine (NSC755774) were obtained from the National Cancer Institute (NCI) Developmental Therapeutics Program Chemical Repository (34). The FDA-approved anticancer drug set is available from the NCI Developmental Therapeutics Program. […] The stock solutions were prepared in dimethyl sulfoxide (DMSO, Sigma-Aldrich, St. Louis, MO, cat. D2650) at 800-fold the tested concentration and stored at -70 degrees C prior to their use. All drugs and investigational agents were tested over a range starting from a high concentration at or near the clinical Cmax and decreasing in half-log increments. If the clinical Cmax for an agent had not been determined, the highest concentration tested was 10 microM.
# 2.3 Cell Culture. All cells were maintained in an incubator at 37 degrees C and 5% CO2 with 95% humidity. The PDC lines were cultured according to standard operating procedures established by the NCI PDMR. All PDCs were thawed and cultured in Matrigel-coated flasks prepared with a working solution of 1X Ham's F-12 nutrient mix, without supplementation (Invitrogen, cat. 11765054), 100 U/mL penicillin-streptomycin (Invitrogen, cat. 15140122), and 2.5% Matrigel (Corning Inc., cat. 354248) for the first three passages. The 857933-349-R-J2-PDC line was cultured in 6C/Colon 1B media, which includes advanced DMEM/F-12 (Thermo Fisher Scientific, cat. 12634028), 10 mM HEPES (Thermo Fisher Scientific, cat. 15630080), 1X GlutaMAX supplement (Thermo Fisher Scientific, cat. 35050061), 0.1 mg/mL primocin (InvivoGen, cat. ant-pm-2), 10% defined fetal bovine serum, heat inactivated (HyClone Laboratories Inc., cat. SH30070.03HI), 50% L-WRN conditioned media (ATCC, cat. CRL-3276), 1.25 mM N-Acetyl-L-cysteine (Sigma-Aldrich, cat. A9165), 10 mM nicotinamide (Sigma-Aldrich, cat. N0636), 1X B-27 supplement (Thermo Fisher Scientific, cat. 17504044), 1X N-2 supplement (Thermo Fisher Scientific, cat. 17502048), 10 microM Y-27632 dihydrochloride (Tocris Bioscience, cat. 1254), and 50 ng/mL human EGF recombinant protein (Thermo Fisher Scientific, cat. PHG0311). The 485176-168-R4-J1-PDC line was cultured in Panc media, which includes all 6C/Colon 1B media components plus 100 ng/mL human FGF-10 (Thermo Fisher Scientific, cat. 100-26), 500 nM SB-431542 (Selleckchem, cat. S1067), and gastrin (Tocris, cat. 3006).
# […]
# 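Also: spheroids exposed to agents for 7 days before readout.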
# 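For viability, T/C in this document: percent viability relative to DMSO vehicle control wells taken as 100%.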
IC50,Structure (SMILES),"viability, T/C (compound 0.0316 µM)","viability, T/C (compound 0.1 µM)","viability, T/C (compound 0.316 µM)","viability, T/C (compound 1 µM)","viability, T/C (compound 3.16 µM)","viability, T/C (compound 10 µM)"
5.38 µM and 5.35 µM and 5.84 µM,CCCS(=O)(=O)Nc1ccc(F)c(C(=O)c2c[nH]c3ncc(-c4ccc(Cl)cc4)cc23)c1F,100% (2×) and 106%,103% and 95.3% and 98.6%,97.9% and 100% and 97.8%,97% and 88.9% and 91.9%,89.7% and 88.8% and 104%,3.68% and 3.75% and 6.39%
> 10 µM and 9.78 µM,COc1ccc([C@@H](O)c2cc(-c3ncnc4cc(N5CCOCC5)ccc34)c(F)cc2Cl)nn1,115% and 98% and 99.7%,101% and 102% and 89.1%,98% and 106% and 97.2%,96.9% and 97.6% and 92.6%,97.4% and 100% and 94.8%,56.7% and 49% and 51.9%
> 10 µM,CC(C)n1c(=O)n(C)c2cnc3cc(F)c(-c4ccc(OCCCN5CCCCC5)nc4)cc3c21,107% and 104% and 97.4%,99% and 102% and 91.9%,106% and 98.5% and 96.9%,110% and 101% and 92.8%,106% and 110% and 105%,53% and 94.7% and 96.5%
> 10 µM,C=CC(=O)N1CCN(c2nc(=O)n(-c3c(C)ccnc3C(C)C)c3nc(-c4c(O)cccc4F)c(F)cc23)C(C)C1 (stereo not drawn),104% and 97.8% and 91.6%,90.8% and 91.2% and 98.1%,90.4% and 93.1% and 102%,94.2% and 93.5% and 95.7%,91.2% and 93.4% and 92.8%,68.1% and 71.2% and 75.3%
